# Strand notation (5' to 3'): a small letter for the sugar, then the base; units joined by * are phosphorothioate-linked, units joined directly phosphodiester-linked; [ ] holds rarer units or linkages, { } end groups; capitals alone tell only the bases. Where no end group is shown, it is not given here. [ ]: non-standard residue; d: D form. {NH2C6-invAb} = cap: inverted abasic residue carrying an aminohexyl phosphate (attachment handle); [invAb] = inverted abasic unit; TGN = not defined here; m = 2'-O-methyl; f = 2'-fluoro
# Columns and labels:
# [1] = system: CTNNB1; experiment: In vivo evaluation in mice: liver mRNA knockdown measurement (TaqMan qPCR); set-up: species or system CD-1 mice; conditions: mice
# Method: (§1) Female CD-1 mice (Charles River) were injected in accordance with either a sequential dosing paradigm or a co-dosing paradigm. In the sequential dosing paradigm, the targeted siRNA (SCE) is dosed at t=0 and the targeted peptide is separately dosed up to 2 hr before the SCE (−2 hr) or up to 24 hr after the SCE (+24 hr). In the co-dosing paradigm, the SCE and peptides are co-formulated and dosed together in the same formulation as a single injection at t=0. The mice were dosed either by intravenous (i.v.) or subcutaneous (s.c.) injection of SCE and peptide. For the i.v. doses, the compounds were injected into the tail vein of the mice. For the s.c. doses, the compounds were injected in the subcutaneous space on the back of the mouse between the shoulder blades. At the indicated harvest times (measured from t=0 when the siRNA was dosed, regardless of when the peptide was dosed), the animals were sacrificed and 3 mm liver punches were collected, preserved in RNAlater (Ambion), and stored at 4° C. Separate 5 mm liver punches were collected, placed in 96-well plates, frozen on dry ice, and stored at −80° C. until use.
# The 3 mm liver punches were removed from RNAlater and homogenized in Trizol (Invitrogen) using a bead mill tissue lyser (Qiagen); disruption was performed for two 5-minute cycles at 30 Hz. RNA extraction was performed using 1-bromo-2-chloropropane (Acros Organics) and total RNA was isolated from the aqueous phase using the MagMax RNA isolation method (Ambion). […] TaqMan qPCR analysis was performed with an ABI 7900 Real-Time PCR System using TaqMan Fast Advanced Master Mix (Applied Biosystems). All TaqMan probes and primers for CTNNB1 and PPIB (housekeeping gene) were purchased from Applied Biosystems as pre-validated gene expression assays. Results are calculated by the comparative Ct method, where the difference between the CTNNB1 Ct value and the PPIB Ct value (ΔCt) is calculated and then further normalized relative to the PBS control by taking a second difference (ΔΔCt), as described previously (1).
# [2] = Lethality observed in the in vivo evaluation in mice; set-up: species or system CD-1 mice; key to lethal at this dose (asterisk at targeted peptide dose): *: lethal at this dose
# Method: as §1
# [3] = siRNA metabolic stability (FIG. 6 legend); conditions: order siRNA-I>siRNA-V>siRNA-VI
# [4] = Table 6, sequential, peptide IV 15 min after siRNA IV, TGN-L-siRNA-III 0.5 mg/kg, peptide 2 mg/kg
# [5] = Table 6, sequential, peptide IV 15 min after siRNA IV, TGN-L-siRNA-III 0.5 mg/kg, peptide 10 mg/kg
# [6] = Table 6, sequential, peptide IV 15 min after siRNA IV, TGN-L-siRNA-III 0.5 mg/kg, peptide 25 mg/kg
# [7] = Table 6, TGN-L-siRNA-III 0.5 mg/kg IV, peptide 25 mg/kg IV 15 min after siRNA
# [8] = Table 6, TGN-L-siRNA-III 0.25 mg/kg IV, peptide 10 mg/kg IV 15 min after siRNA
# [9] = Table 6, sequential, peptide IV 15 min after siRNA IV, TGN-L-siRNA-II 0.25 mg/kg, peptide 1 mg/kg
# [10] = Table 6, sequential, peptide IV 15 min after siRNA IV, TGN-L-siRNA-II 0.25 mg/kg, peptide 3 mg/kg
# [11] = Table 6, sequential, peptide IV 15 min after siRNA IV, TGN-L-siRNA-III 0.25 mg/kg, peptide 5 mg/kg
substance,measurement,setting,value
TGN-S-S-SEQ ID NO: 1248 (D) (C[dF][dL][dE][dE][dL][dW][dE][dL][dL][dE][dH][dL][dL]; not fully specified (residue 1); listed as Homo sapiens),In vivo mRNA knockdown (%),[1]; [4],42%
same,In vivo mRNA knockdown (%),[1]; [5],74%
same,In vivo mRNA knockdown (%),[1]; [6],58%
same,lethal at this dose (asterisk at targeted peptide dose),[2]; [7],25*
TGN-S-S-SEQ ID NO: 1419 (D) (C[dF][dL][dE][dE][dL][dW]G[dL][dL][dE][dH][dL][dL]; not fully specified (residue 1); listed as Homo sapiens),In vivo mRNA knockdown (%),[1]; [4],43%
same,In vivo mRNA knockdown (%),[1]; [5],78%
same,In vivo mRNA knockdown (%),[1]; [6],76%
same,lethal at this dose (asterisk at targeted peptide dose),[2]; [7],25*
TGN-S-S-SEQ ID NO: 1628 (D) ([dC]G[dL][dL][dA][dI]X[dE][dI][dE][dE][dL][dL][dE][dE]G[dL][dE][dN][dL][dI][dD][dW][dW][dN][dS]; not fully specified; also: TGN via disulfide; listed as Homo sapiens),Mortality (words printed in the knockdown column),[2]; [8],All mice died
same,lethal at this dose (asterisk at targeted peptide dose),[2]; [8],10*
TGN-S-S-SEQ ID NO: 1654 (D) (CG[dL][dL][dE][dE][dI][dE][dE][dL][dL][dE][dE]G[dL][dE][dN][dL][dI][dD][dW]G[dN][dS]; not fully specified (residue 1); listed as Homo sapiens),In vivo mRNA knockdown (%),"[1]; Table 6, sequential, peptide IV 15 min after siRNA IV, TGN-L-siRNA-III 0.25 mg/kg, peptide 2 mg/kg",51%
same,In vivo mRNA knockdown (%),"[1]; Table 6, sequential, peptide IV 15 min after siRNA IV, TGN-L-siRNA-III 0.25 mg/kg, peptide 10 mg/kg",72%
same,In vivo mRNA knockdown (%),"[1]; Table 6, sequential, peptide IV 15 min after siRNA IV, TGN-L-siRNA-III 0.25 mg/kg, peptide 50 mg/kg",65%
same,lethal at this dose (asterisk at targeted peptide dose),"[2]; Table 6, TGN-L-siRNA-III 0.25 mg/kg IV, peptide 50 mg/kg IV 15 min after siRNA",50*
"TGN-S-S-SEQ ID NO: 1733 (D): TGN-S-S-peptide, peptide AC-GLFGALAEALAEALAEHLAEALAEALEALAAGGSC",In vivo mRNA knockdown (%),[1]; [9],60%
same,In vivo mRNA knockdown (%),[1]; [10],75%
same,In vivo mRNA knockdown (%),"[1]; Table 6, sequential, peptide IV 15 min after siRNA IV, TGN-L-siRNA-II 0.25 mg/kg, peptide 10 mg/kg",58%
same,In vivo mRNA knockdown (%),"[1]; Table 6, sequential, peptide IV 15 min after siRNA IV, TGN-L-siRNA-II 0.25 mg/kg, peptide 50 mg/kg",50%
same,In vivo mRNA knockdown (%),[1]; [11],73%
same,In vivo mRNA knockdown (%),"[1]; Table 7, TGN-L-siRNA-II 0.25 mg/kg, peptide 3 mg/kg, Sequential dosing-IV (peptide 15 min after siRNA)",69%
same,In vivo mRNA knockdown (%),"[1]; Table 7, TGN-L-siRNA-II 0.25 mg/kg, peptide 3 mg/kg, Sequential dosing-SC (peptide 15 min after siRNA)",47%
same,In vivo mRNA knockdown (%),"[1]; Table 7, TGN-L-siRNA-II 0.25 mg/kg, peptide 10 mg/kg, Sequential dosing-IV (peptide 15 min after siRNA)",58%
same,In vivo mRNA knockdown (%),"[1]; Table 7, TGN-L-siRNA-II 0.25 mg/kg, peptide 10 mg/kg, Sequential dosing-SC (peptide 15 min after siRNA)",67%
"TGN-S-S-SEQ ID NO: 1734 (D): TGN-S-S-peptide, peptide AC-GLFEAIEGFIENGWEGLAELAEALEALAAGGSC",In vivo mRNA knockdown (%),[1]; [11],61%
TGN-S-S-SEQ ID NO: 1738 (D) (G[dL][dF]G[dE][dI][dE][dE][dL][dI][dE][dE]G[dL][dE][dN][dL][dI][dD][dW]G[dN]G[dL][dA][dE][dL][dA][dE][dA][dL][dE][dA][dL][dA][dA]GG[dS][dC]; not fully specified; also: disulfide to TGN peptide via C-terminal Cys; listed as Homo sapiens),In vivo mRNA knockdown (%),[1]; [9],25%
same,In vivo mRNA knockdown (%),[1]; [10],44%
"TGN-S-S-SEQ ID NO: 1740 (D): TGN-S-S-peptide, peptide GLFEAIEGFIENGWEGLAELAEALEALAAGGSC (G[dL][dF][dE][dA][dI][dE]G[dF][dI][dE][dN]G[dW][dE]G[dL][dA][dE][dL][dA][dE][dA][dL][dE][dA][dL][dA][dA]GG[dS][dC]; not fully specified; also: disulfide to TGN peptide via C-terminal Cys; listed as Homo sapiens)",In vivo mRNA knockdown (%),[1]; [9],23%
same,In vivo mRNA knockdown (%),[1]; [10],42%
"TGN-S-S-SEQ ID NO: 1740 (L): TGN-S-S-peptide, peptide GLFEAIEGFIENGWEGLAELAEALEALAAGGSC (GLFEAIEGFIENGWEGLAELAEALEALAAGGSC(TGN); reading uncertain; also: TGN attached via disulfide (S-S); listed as Homo sapiens)",In vivo mRNA knockdown (%),[1]; [10],20%
"TGN-S-S-SEQ ID NO: 1741(L): TGN-S-S-peptide, peptide GLFGALAEALAEALAEHLAEALAEALEALAAGGSC (GLFGALAEALAEALAEHLAEALAEALEALAAGGSC(TGN); reading uncertain; also: TGN attached via disulfide (S-S); listed as Homo sapiens)",In vivo mRNA knockdown (%),[1]; [10],24%
TGN-S-S-SEQ ID NO: 1744 (D) ([dC][dE][dE][dN][dW][dI]G[dL][dF]GGG[dN][dI][dW][dE][dE][dE][dE][dI][dL][dD][dL][dL]; also: disulfide to TGN peptide via N-terminal Cys; listed as Homo sapiens),In vivo mRNA knockdown (%),[1]; [4],28%
same,In vivo mRNA knockdown (%),[1]; [5],33%
"TGN-S-S-SEQ ID NO: 1746 (D): TGN-S-S-peptide, peptide CEALFGKINAIFIGKL ([dC][dE][dA][dL][dF]G[dK][dI][dN][dA][dI][dF][dI]G[dK][dL]; also: disulfide to TGN peptide via N-terminal Cys; listed as Homo sapiens)",In vivo mRNA knockdown (%),[1]; [4],31%
same,In vivo mRNA knockdown (%),[1]; [5],25%
"siRNA-IV: CTNNB1 ds siRNA, passenger SEQ ID NO 1807 (clickA, 5Chol), guide SEQ ID NO 1806 (sense CUGUUGGAUUGAUUCGAAAUU; guide TUUCGAAUCAAUCCAACAGUU; clickA; 5' cholesterol; (1)..(1) aminohexyl phosphate inverted abasic cap; (1)..(2) 2′-O-methyl; (3)..(3) 2′-deoxy-2′-fluoro; (4)..(5) 2′-O-methyl; (6)..(8) 2′-deoxy-2′-fluoro; (9)..(10) 2′-O-methyl; (11)..(12) 2′-deoxy-2′-fluoro; (13)..(15) 2′-O-methyl; (16)..(16) 2′-deoxy-2′-fluoro; (17)..(17) 2′ propagyl; (18)..(19) 2′-deoxy-2′-fluoro; (20)..(21) 2′-O-methyl; (20)..(21) phosphorothioate internucleotide linkage; (21)..; (1)..(1) terminal vinyl phosphate; (1)..(1) 2′-methoxyethoxy; (2)..(21) ribonucleotide unmodified or modified as described for this sequence; (2)..(2) 2′-deoxy-2′-fluoro; …)",In vivo mRNA knockdown (%),"[1]; Table 6, siRNA-IV 0.5 mg/kg IV, peptide dose 0",25%
same,In vivo mRNA knockdown (%),"[1]; Table 6, siRNA-IV 2 mg/kg IV, peptide dose 0",25%
same,In vivo mRNA knockdown (%),"[1]; Table 6, siRNA-IV 5 mg/kg IV, peptide dose 0",35%
"siRNA-VI: CTNNB1 ds siRNA, passenger SEQ ID NO 1803, guide SEQ ID NO 1809 (sense {NH2C6-invAb}-mCmUfGmUmUfGfGfAmUmUfGfAmUmUmCfGfAfAfAmU*mU[invAb]; guide fUfUfUmCfGfAfAmUmCfAfAmUmCfCfAfAmCfAfGmU*mU)",siRNA stability (metabolic stability),[3],more unstable

# Source: patent publication US10532068B2, “Dual molecular delivery of oligonucleotides and peptide containing conjugates” (Merck Sharp & Dohme Corp., priority 2013, dated 2020)
